Reference: US20140248291A1, “Modulation of Cellular Migration” (THE UAB RESEARCH FOUNDATION, priority 2011, published 2014)

How the values were obtained:
[1] = system: MMP gelatinase activity of D54 MG cells; assay: in-situ zymography of gelatinolytic MMP activity (DQ gelatin); type: cell-based, human; conditions: BK plus B2R antagonist
Description: To assess gelatinolytic MMP activity we used in situ zymography, as described previously (Deshane J et al, 2003). Briefly, after cell nuclei were labeled with Hoechst dye, fluorescein isothiocyanate-labeled DQ gelatin with BK+/−antagonists (Molecular Probes, Eugene, Oreg.) was applied overnight on the coverslips plated with D54 MG cells. Coverslips where drugs were omitted were processed in parallel and used as controls. At the end of the incubation period, cells were photographed by fluorescence microscopy with a Zeiss Axiovert 200 M microscope using a 20× objective. Quantification of fluorescent staining intensity after background subtraction was done using Slidebook 4.2 software (Intelligent Imaging Innovations, Denver, Colo.). Experiments were repeated three times.
To investigate the hypothesis that BK promotes glioma migration in vitro, we used Transwell migration assay which conveniently permit examination of cell migration across a membrane barrier with 8 μm pores towards vitronectin, a chemo-attractant extracellular matrix protein. This frequently used assay allows a quantitative study of drug effects with regards to drugs acting as motogens or as chemo-attractants. D54-MG-GFP glioma cells were allowed to migrate for 5 h in the presence/absence of neuroligands. […] Next, we tested glioma cell migration in various BK concentrations. […]

[2] = target: B2R; conditions: NG108-15 cells, n=3; read-out: KI, displacement of [3H]-BK binding; cited from earlier work
[3] = system: B2 receptor; conditions: cited from earlier work
[4] = system: BK-induced ventral root depolarizations; conditions: rat spinal cord and tail preparation, n=3; cited from earlier work
[5] = target: T1, human B1 BK receptor (Homo sapiens, UniProt P46663); conditions: cited from earlier work
T1 sequence (P46663 1-353): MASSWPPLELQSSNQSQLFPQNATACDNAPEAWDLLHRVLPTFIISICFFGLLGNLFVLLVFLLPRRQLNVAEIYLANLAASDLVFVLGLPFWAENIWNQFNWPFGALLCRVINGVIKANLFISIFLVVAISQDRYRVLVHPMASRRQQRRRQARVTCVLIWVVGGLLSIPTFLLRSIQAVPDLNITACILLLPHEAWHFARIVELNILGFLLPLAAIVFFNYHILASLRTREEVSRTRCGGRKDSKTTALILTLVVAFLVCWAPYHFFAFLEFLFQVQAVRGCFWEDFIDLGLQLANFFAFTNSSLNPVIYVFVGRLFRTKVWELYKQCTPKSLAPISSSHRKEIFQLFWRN

[6] = system: BK-induced hypotension and plasma extravasation; conditions: in vivo; cited from earlier work
[7] = in vivo; cited from earlier work
[8] = target: T2, rat B2R (Rattus norvegicus, UniProt P25023); parameters: expressed in transfected cells; host or cells: Cos-7 cells; conditions: Cos-7 cells expressing the rat receptor, n=3; read-out: KI, displacement of [3H]-BK binding; cited from earlier work
T2 sequence (P25023 1-396): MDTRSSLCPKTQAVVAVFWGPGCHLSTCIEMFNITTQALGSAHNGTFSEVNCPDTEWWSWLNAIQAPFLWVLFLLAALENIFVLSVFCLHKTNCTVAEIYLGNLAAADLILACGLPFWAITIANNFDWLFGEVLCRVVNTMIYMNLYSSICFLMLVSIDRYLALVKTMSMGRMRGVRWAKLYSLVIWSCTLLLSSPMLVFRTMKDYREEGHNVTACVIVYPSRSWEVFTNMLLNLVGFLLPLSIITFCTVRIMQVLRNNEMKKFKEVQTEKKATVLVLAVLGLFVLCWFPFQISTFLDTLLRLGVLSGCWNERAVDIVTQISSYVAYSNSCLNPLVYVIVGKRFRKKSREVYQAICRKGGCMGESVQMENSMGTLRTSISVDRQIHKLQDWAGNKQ

[9] = target: T3, BK receptor in guinea-pig ileum preparations (Cavia porcellus, UniProt O70526); conditions: read-out: K1 value, receptor binding; cited from earlier work
T3 construct: from tissue; host or cells: guinea-pig ileum preparations
T3 sequence (O70526 1-372): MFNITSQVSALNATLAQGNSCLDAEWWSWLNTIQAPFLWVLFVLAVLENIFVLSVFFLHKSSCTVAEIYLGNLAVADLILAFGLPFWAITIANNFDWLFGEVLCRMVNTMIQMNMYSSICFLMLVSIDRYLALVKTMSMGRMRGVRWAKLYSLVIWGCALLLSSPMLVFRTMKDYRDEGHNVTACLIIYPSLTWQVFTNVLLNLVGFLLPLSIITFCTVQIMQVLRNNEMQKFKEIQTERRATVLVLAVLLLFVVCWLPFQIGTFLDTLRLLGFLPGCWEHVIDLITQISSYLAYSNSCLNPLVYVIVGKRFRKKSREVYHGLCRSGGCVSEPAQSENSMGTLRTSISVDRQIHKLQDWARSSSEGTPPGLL

Row | SMILES | MMP activity (fluorescence of DQ gelatin) [1] | Ki [2] | Schild slope ([3]; 45Ca efflux from NG108-15 cells) | pKB, inhibition of B2 receptor-induced 45Ca efflux ([3]; NG108-15 cells, n=5) | IC50 [4] | interaction with human B1 BK receptor [5] | BK-induced hypotension [6] | BK-induced plasma extravasation [6] | oral availability [7] | Ki [8] | Ki [9]
1 | CN(C)CCN(C)CCNC(=O)[C@@H]1CCCN1S(=O)(=O)c1ccc(NNC(=S)NC(c2ccccc2)c2ccccc2)c([N+](=O)[O-])c1 [Bradyzide] | reduction of the fluorescence back to control levels | 0.51 nM | 1.05 | 8.0±0.16 | 1.6 ± 0.05 nM | does not interact | blocks | blocks | orally available | 0.89 nM | –
2 | N=C(N)NCCCC(NC(=O)[C@H](N)CCCNC(=N)N)C(=O)N1CCC[C@H]1C(=O)N1C[C@H](O)C[C@H]1C(=O)NCC(=O)N[C@@H](Cc1cccs1)C(=O)N[C@@H](CO)C(=O)N1Cc2ccccc2C[C@@H]1C(=O)N1C2CCCCC2C[C@H]1C(=O)N[C@H](CCCNC(=N)N)C(=O)O (stereo partly drawn) [HOE-140, D-Arg-[Hyp^3, Thi^5, D-Tic^7, Oic^8]bradykinin] | reduction of the fluorescence back to control levels | – | – | – | – | – | – | – | – | – | 0.798 nM
